In patent publication US10456407B2, “Combination therapy for treating cancer” (Epizyme, Inc., priority 2015, dated 2019):

Tested on: WSU-DLCL2 cells
Test: RT2 Glucocorticoid signaling PCR array, WSU-DLCL2 (WSU) cell line (Table 4c)
Format: cell-based

C[C@]12C=CC(=O)C=C1CC[C@@H]1[C@@H]2[C@@H](O)C[C@@]2(C)[C@H]1CC[C@]2(O)C(=O)CO [Prednisolone, prednisolone]
Ct Values, ACTB (gene ACTB): 14.572
ΔCT (B2M), ACTB (gene ACTB): −4.573
Ct Values, ADARB1 (gene ADARB1): 26.108
ΔCT (B2M), ADARB1 (gene ADARB1): 6.963
ΔΔCT, ADARB1 (gene ADARB1, compared to DMSO): 0.097
Ct Values, AFF1 (gene AFF1): 27.334
ΔCT (B2M), AFF1 (gene AFF1): 8.189
ΔΔCT, AFF1 (gene AFF1, compared to DMSO): −0.464
Ct Values, AK2 (gene AK2): 20.433
ΔCT (B2M), AK2 (gene AK2): 1.288
ΔΔCT, AK2 (gene AK2, compared to DMSO): 0.094
Ct Values, AMPD3 (gene AMPD3): 27.943
ΔCT (B2M), AMPD3 (gene AMPD3): 8.798
ΔΔCT, AMPD3 (gene AMPD3, compared to DMSO): −0.219
Ct Values, ANGPTL4 (gene ANGPTL4): 30.810
ΔCT (B2M), ANGPTL4 (gene ANGPTL4): 11.665
ΔΔCT, ANGPTL4 (gene ANGPTL4, compared to DMSO): −0.329
Ct Values, ANXA4 (gene ANXA4): 27.406
ΔCT (B2M), ANXA4 (gene ANXA4): 8.261
ΔΔCT, ANXA4 (gene ANXA4, compared to DMSO): −0.025
Ct Values, AQP1 (gene AQP1): 33.595
ΔCT (B2M), AQP1 (gene AQP1): 14.450
Ct Values, ARID68 (gene ARID68): 26.721
ΔCT (B2M), ARID68 (gene ARID68): 7.576
ΔΔCT, ARID68 (gene ARID68, compared to DMSO): 0.722
Ct Values, ASPH (gene ASPH): 21.939
ΔCT (B2M), ASPH (gene ASPH): 2.794
ΔΔCT, ASPH (gene ASPH, compared to DMSO): −0.041
Ct Values, ATF4 (gene ATF4): 19.659
ΔCT (B2M), ATF4 (gene ATF4): 0.514
ΔΔCT, ATF4 (gene ATF4, compared to DMSO): 0.090
Ct Values, B2M (gene B2M (normaliser)): 19.145
ΔCT (B2M), B2M (gene B2M (normaliser)): 0.000
Ct Values, BCL6 (gene BCL6): 20.898
ΔCT (B2M), BCL6 (gene BCL6): 1.753
ΔΔCT, BCL6 (gene BCL6, compared to DMSO): 0.249
Ct Values, CEBPA (gene CEBPA): 27.838
ΔCT (B2M), CEBPA (gene CEBPA): 8.693
ΔΔCT, CEBPA (gene CEBPA, compared to DMSO): −0.295
Ct Values, CEBPB (gene CEBPB): 25.775
ΔCT (B2M), CEBPB (gene CEBPB): 6.630
ΔΔCT, CEBPB (gene CEBPB, compared to DMSO): 0.814
Ct Values, COL4A2 (gene COL4A2): 34.328
ΔCT (B2M), COL4A2 (gene COL4A2): 15.183
Ct Values, CREB1 (gene CREB1): 22.732
ΔCT (B2M), CREB1 (gene CREB1): 3.587
ΔΔCT, CREB1 (gene CREB1, compared to DMSO): −0.133
Ct Values, CREB3 (gene CREB3): 24.551
ΔCT (B2M), CREB3 (gene CREB3): 5.406
ΔΔCT, CREB3 (gene CREB3, compared to DMSO): −0.453
Ct Values, CREB3L4 (gene CREB3L4): 24.437
ΔCT (B2M), CREB3L4 (gene CREB3L4): 5.292
ΔΔCT, CREB3L4 (gene CREB3L4, compared to DMSO): −0.330
Ct Values, CYB561 (gene CYB561): 32.971
ΔCT (B2M), CYB561 (gene CYB561): 13.826
ΔΔCT, CYB561 (gene CYB561, compared to DMSO): −3.598
Ct Values, DDIT4 (gene DDIT4): 22.252
ΔCT (B2M), DDIT4 (gene DDIT4): 3.107
ΔΔCT, DDIT4 (gene DDIT4, compared to DMSO): −1.672
Ct Values, DUSP1 (gene DUSP1): 25.828
ΔCT (B2M), DUSP1 (gene DUSP1): 6.683
ΔΔCT, DUSP1 (gene DUSP1, compared to DMSO): 0.454
Ct Values, EDN1 (gene EDN1): 30.019
ΔCT (B2M), EDN1 (gene EDN1): 11.674
Ct Values, EHD3 (gene EHD3): 27.724
ΔCT (B2M), EHD3 (gene EHD3): 8.579
ΔΔCT, EHD3 (gene EHD3, compared to DMSO): −1.645
Ct Values, FK8PS (gene FK8PS): 21.321
ΔCT (B2M), FK8PS (gene FK8PS): 2.176
ΔΔCT, FK8PS (gene FK8PS, compared to DMSO): −1.247
Ct Values, FOSL2 (gene FOSL2): 33.647
ΔCT (B2M), FOSL2 (gene FOSL2): 14.502
ΔΔCT, FOSL2 (gene FOSL2, compared to DMSO): 2.843
Ct Values, GAPDH (gene GAPDH): 16.349
ΔCT (B2M), GAPDH (gene GAPDH): −2.796
Ct Values, GDPD1 (gene GDPD1): 28.235
ΔCT (B2M), GDPD1 (gene GDPD1): 9.090
ΔΔCT, GDPD1 (gene GDPD1, compared to DMSO): 0.169
Ct Values, GHRHR (gene GHRHR): 37.739
ΔCT (B2M), GHRHR (gene GHRHR): 18.644
ΔΔCT, GHRHR (gene GHRHR, compared to DMSO): 3.458
Ct Values, GLUL (gene GLUL): 31.475
ΔCT (B2M), GLUL (gene GLUL): 12.330
Ct Values, GOT1 (gene GOT1): 22.841
ΔCT (B2M), GOT1 (gene GOT1): 3.696
ΔΔCT, GOT1 (gene GOT1, compared to DMSO): 0.262
Ct Values, H6PD (gene H6PD): 26.197
ΔCT (B2M), H6PD (gene H6PD): 7.052
ΔΔCT, H6PD (gene H6PD, compared to DMSO): 0.142
Ct Values, HNRPLL (gene HNRPLL): 24.750
ΔCT (B2M), HNRPLL (gene HNRPLL): 5.605
ΔΔCT, HNRPLL (gene HNRPLL, compared to DMSO): 1.026
Ct Values, HPRT1 (gene HPRT1): 21.361
ΔCT (B2M), HPRT1 (gene HPRT1): 2.216
Ct Values, IL1RN (gene IL1RN): 33.599
ΔCT (B2M), IL1RN (gene IL1RN): 14.454
ΔΔCT, IL1RN (gene IL1RN, compared to DMSO): 1.298
Ct Values, IL10 (gene IL10): 34.306
ΔCT (B2M), IL10 (gene IL10): 15.161
Ct Values, KLF9 (gene KLF9): 30.105
ΔCT (B2M), KLF9 (gene KLF9): 10.960
ΔΔCT, KLF9 (gene KLF9, compared to DMSO): −0.431
Ct Values, KLF13 (gene KLF13): 23.792
ΔCT (B2M), KLF13 (gene KLF13): 4.647
ΔΔCT, KLF13 (gene KLF13, compared to DMSO): −0.442
Ct Values, LOX (gene LOX): 34.511
ΔCT (B2M), LOX (gene LOX): 15.366
ΔΔCT, LOX (gene LOX, compared to DMSO): 0.550
Ct Values, MERTK (gene MERTK): 32.524
